Measurements as given in PubChem BioAssay (NCI).
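These data come from cells grown in 96-well plates and exposed to compound for 48 hours at five concentrations. The concentration for 50% growth inhibition is given as GI50. TGI marks complete inhibition of growth.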

Tests used:
Assay in all cases: NCI-60 cell line screen, 48 h
[1] = tested on: OVCAR-3 ovarian
[2] = tested on: RPMI-8226 leukemia
[3] = tested on: EKVX NSCLC
[4] = tested on: HCC-2998 colon
[5] = tested on: SF-295 CNS
[6] = tested on: SF-539 CNS
[7] = tested on: A498 renal
[8] = tested on: NCI-H226 lung
[9] = tested on: MOLT-4 leukemia
[10] = tested on: SR leukemia
[11] = tested on: UO-31 renal
[12] = tested on: HOP-92 NSCLC
[13] = tested on: HL-60(TB) leukemia
[14] = tested on: A549 NSCLC
[15] = tested on: COLO 205 colon
[16] = tested on: OVCAR-4 ovarian
[17] = tested on: M14 melanoma
[18] = tested on: MCF7 breast
[19] = tested on: HCT-116 colon
[20] = tested on: UACC-62 melanoma
[21] = tested on: IGROV1 ovarian
[22] = tested on: SK-MEL-28 melanoma
[23] = tested on: NCI-H522 lung
[24] = tested on: SNB-19 CNS
[25] = tested on: OVCAR-8 ovarian
[26] = tested on: OVCAR-5 ovarian
[27] = tested on: KM12 colon
[28] = tested on: MDA-MB-231 breast
[29] = tested on: T-47D breast
[30] = tested on: RXF 393 renal
[31] = tested on: ACHN renal
[32] = tested on: MDA-MB-468 breast
[33] = tested on: SNB-75 CNS
[34] = tested on: PC-3 prostate
[35] = tested on: MALME-3M melanoma
[36] = tested on: K-562 leukemia
[37] = tested on: UACC-257 melanoma
[38] = tested on: HOP-62 NSCLC
[39] = tested on: SN12C renal
[40] = tested on: HS 578T breast
[41] = tested on: TK-10 renal
[42] = tested on: SW-620 colon
[43] = tested on: HT29 colon
[44] = tested on: NCI-H23 lung
[45] = tested on: BT-549 breast
[46] = tested on: 786-0 renal
[47] = tested on: NCI-H460 lung
[48] = tested on: SK-OV-3 ovarian
[49] = tested on: CAKI-1 renal
[50] = tested on: SK-MEL-2 melanoma
[51] = tested on: DU-145 prostate
[52] = tested on: LOX IMVI melanoma
[53] = tested on: U251 CNS
[54] = tested on: HCT-15 colon
[55] = tested on: MDA-MB-435
[56] = tested on: SK-MEL-5 melanoma
[57] = tested on: CCRF-CEM leukemia
[58] = tested on: SF-268 CNS

With `N#CC1=C(c2cccs2)Nc2c(c(-c3ccccc3)nn2-c2ccccc2)C12C(=O)Nc1ccc(Cl)cc12` (stereo unspecified) the GI50 [1] was 6.88 µM, the TGI [1] was 19.7 µM and the GI50 [2] was 4.3 µM. It also gave a TGI [2] of 27.5 µM, a GI50 [3] of 4.33 µM and a TGI [3] of 18 µM. For the same molecule, the GI50 [4] was 7.13 µM, the TGI [4] was 19.8 µM and the GI50 [5] was 3.74 µM. It also gave a TGI [5] of 15.9 µM, a GI50 [6] of 4.77 µM and a TGI [6] of 17 µM. The GI50 [7] was 16.8 µM, the TGI [7] was 31.2 µM and the GI50 [8] was 11.6 µM. The TGI [8] was 28.2 µM, the GI50 [9] was 4.95 µM and the TGI [9] was 23.4 µM. It also gave a GI50 [10] of 4.93 µM, a TGI [10] of 36.3 µM and a GI50 [11] of 2.54 µM. The TGI [11] was 12.2 µM, the GI50 [12] was 2.47 µM and the TGI [12] was 7.94 µM. The GI50 [13] was 3.51 µM, the TGI [13] was 11.7 µM and the GI50 [14] was 4.12 µM. The TGI [14] was 15.9 µM, the GI50 [15] was 14.3 µM and the TGI [15] was 29.5 µM. The GI50 [16] was 4.77 µM, the TGI [16] was 21.1 µM and the GI50 [17] was 4.94 µM. The TGI [17] was 18.4 µM, the GI50 [18] was 4.95 µM and the TGI [18] was 19.4 µM. For the same molecule, the GI50 [19] was 3.95 µM, the TGI [19] was 16.3 µM and the GI50 [20] was 4.13 µM. The TGI [20] was 16.9 µM, the GI50 [21] was 4.93 µM and the TGI [21] was 17.7 µM. The GI50 [22] was 11.1 µM, the TGI [22] was 23.2 µM and the GI50 [23] was 2.6 µM. For the same molecule, the TGI [23] was 9.87 µM, the GI50 [24] was 3.12 µM and the TGI [24] was 14.2 µM. For the same molecule, the GI50 [25] was 4.92 µM, the TGI [25] was 17.9 µM and the GI50 [26] was 7.31 µM. The TGI [26] was 20.9 µM, the GI50 [27] was 3.66 µM and the TGI [27] was 13.6 µM. The GI50 [28] was 4.52 µM, the TGI [28] was 16.9 µM and the GI50 [29] was 5.84 µM. The TGI [29] was 33.8 µM, the GI50 [30] was 3.14 µM and the TGI [30] was 13.3 µM. The GI50 [31] was 4.05 µM, the TGI [31] was 14.8 µM and the GI50 [32] was 4.45 µM. For the same molecule, the TGI [32] was 16.6 µM, the GI50 [33] was 2.6 µM and the TGI [33] was 13 µM. The GI50 [34] was 3.18 µM, the TGI [34] was 15.2 µM and the GI50 [35] was 14.3 µM. For the same molecule, the TGI [35] was 27.4 µM, the GI50 [36] was 4.46 µM and the TGI [36] was 34.1 µM. It also gave a GI50 [37] of 12.9 µM, a TGI [37] of 25.8 µM and a GI50 [38] of 7.02 µM. For the same molecule, the TGI [38] was 21.4 µM, the GI50 [39] was 4.46 µM and the TGI [39] was 16.8 µM. The GI50 [40] was 3.22 µM, the TGI [40] was 18.6 µM and the GI50 [41] was 5.81 µM. The TGI [41] was 20.5 µM, the GI50 [42] was 4.56 µM and the TGI [42] was 16.6 µM. It also gave a GI50 [43] of 4.82 µM, a TGI [43] of 17.1 µM and a GI50 [44] of 5.57 µM. It also gave a TGI [44] of 18.2 µM, a GI50 [45] of 3.02 µM and a TGI [45] of 13.1 µM. For the same molecule, the GI50 [46] was 6.43 µM, the TGI [46] was 20.6 µM and the GI50 [47] was 4.07 µM. For the same molecule, the TGI [47] was 14.1 µM, the GI50 [48] was 10.6 µM and the TGI [48] was 23.6 µM. The GI50 [49] was 5.26 µM, the TGI [49] was 18.6 µM and the GI50 [50] was 3.97 µM. The TGI [50] was 14.6 µM, the GI50 [51] was 13.9 µM and the TGI [51] was 30.3 µM. For the same molecule, the GI50 [52] was 6.46 µM, the TGI [52] was 20.4 µM and the GI50 [53] was 3.88 µM. The TGI [53] was 14.4 µM, the GI50 [54] was 3.74 µM and the TGI [54] was 14.1 µM. For the same molecule, the GI50 [55] was 11.1 µM, the TGI [55] was 23.9 µM and the GI50 [56] was 10.8 µM. The TGI [56] was 23.1 µM, the GI50 [57] was 3.35 µM and the TGI [57] was 20.7 µM. For the same molecule, the GI50 [58] was 3.52 µM and the TGI [58] was 19 µM.
